Measurements as given in EP0726072A2, “Composition for the treatment of hypertension and congestive heart failure, containing an angiotensin II antagonist and an endopeptidase inhibitor” (BRISTOL-MYERS SQUIBB COMPANY, priority 1995, dated 1996).

Test system: cardiomyopathic hamsters
Experiment: Cardiovascular effects in conscious cardiomyopathic hamsters with compensated heart failure
Format: in vivo, hamsters of the BIO TO-2 strain
Details: for left ventricular end diastolic pressure, effect in words / left ventricular systolic pressure, effect in words: summary of the discussion, up to 90 minutes after last treatment
Description: The studies described in this experiment were conducted in male hamsters of the BIO TO-2 strain when they were approximately 260 days of age and weighed on average 115 g. These animals develop a genetic form of cardiomyopathy that progresses uniformly among animals through different stages of heart failure. By 240 - 300 days of age the cardiomyopathic hamsters are characterized (as compared with control hamsters) by low mean arterial pressure, a 40% reduction in cardiac output and a decrease in renal blood flow. They display elevated cardiac filling pressure, depressed ventricular function, increased peripheral vascular resistance and have an 8-10-fold increase in plasma atrial natriuretic peptide concentration.
The experiments were conducted in conscious, unrestrained, cardiomyphathic hamsters three hours after placement of cardivascular catheters using brief anesthesia. The catheters allowed measurement of mean arterial pressure, left ventricular end diastolic pressure, left ventricular systolic pressure and heart rate, and provided a means for the administration of agents intravenously.
In this series of experiments baseline measurements of left ventricular end diastolic pressure, left ventricular systolic pressure and heart rate were determined in groups of conscious cardiomyopathic hamsters. Compounds or vehicle were administered intravenously, and measurements were repeated at 30-minute intervals up to 90 minutes after administration of the last agent. BMS 186295 was administered at 30 µmol/kg, i.v. (0.3 ml) followed by a continuous i.v. infusion at 1 µmol/kg per min (0.01 ml/min). BMS 186295 was prepared in 0.028 M potassium hydroxide and diluted to a final concentration of 0.17 M potassium hydroxide. Potassium hydroxide solution (0.17 M) was administered intravenously to the vehicle group at 0.3 ml followed by a continuous infusion at 0.01 ml/min. SQ 28603 was dissolved in 0.84% sodium bicarbonate and administered at 30 µmol/kg, i.v. This dose of SQ 28603 was previously shown to result in a doubling of plasma atrial natriuretic peptide concentration within 90 minutes in this model. One group of cardiomyopathic hamsters received the combination of BMS 186295 and SQ 28603. In this group BMS 186295 was administered according to the same dosage regimen described above; 30 minutes after the bolus injection of BMS 186295, SQ 28603 was administered at 30 µmol/kg, i.v.
Differences in age, body weight and baseline values among groups were evaluated by analysis of variance. Differences in changes from baseline among groups were evaluated by analysis of covariance with repeated measures and contrasts. The baseline value for each variable was used as the covariate. The level of significance was taken at P < 0.05. All data are expressed as mean ± standard error of the mean.

[1] = 30′, BMS 186295 30 µmol/kg i.v. + 1 µmol/kg per min, SQ 28603 30 µmol/kg i.v.
[2] = 60′, BMS 186295 30 µmol/kg i.v. + 1 µmol/kg per min, SQ 28603 30 µmol/kg i.v.
[3] = 90′, BMS 186295 30 µmol/kg i.v. + 1 µmol/kg per min, SQ 28603 30 µmol/kg i.v.
[4] = 30 minutes after last treatment, BMS 186295 30 µmol/kg i.v. + 1 µmol/kg per min, SQ 28603 30 µmol/kg i.v.
[5] = 60 minutes after last treatment, BMS 186295 30 µmol/kg i.v. + 1 µmol/kg per min, SQ 28603 30 µmol/kg i.v.
[6] = 90 minutes after last treatment, BMS 186295 30 µmol/kg i.v. + 1 µmol/kg per min, SQ 28603 30 µmol/kg i.v.
[7] = table line headed 'BMS 186295 SQ 28603', between Baseline and 30′ (time of treatment)

SMILES | Heart Rate [1] [beats/min] | Left Ventricular End Diastolic Pressure [1] [mm Hg] | Left Ventricular Systolic Pressure [1] [mm Hg] | Heart Rate [2] [beats/min] | Left Ventricular End Diastolic Pressure [2] [mm Hg] | Left Ventricular Systolic Pressure [2] [mm Hg] | Heart Rate [3] [beats/min] | Left Ventricular End Diastolic Pressure [3] [mm Hg] | Left Ventricular Systolic Pressure [3] [mm Hg] | Left Ventricular End Diastolic Pressure, Change From Baseline [4] [mm Hg] | Left Ventricular Systolic Pressure, Change From Baseline [4] [mm Hg] | Left Ventricular End Diastolic Pressure, Change From Baseline [5] [mm Hg] | Left Ventricular Systolic Pressure, Change From Baseline [5] [mm Hg] | Left Ventricular End Diastolic Pressure, Change From Baseline [6] [mm Hg] | Left Ventricular Systolic Pressure, Change From Baseline [6] [mm Hg] | Heart Rate (Baseline, before treatment) [beats/min] | Left Ventricular End Diastolic Pressure (Baseline, before treatment) [mm Hg] | Left Ventricular Systolic Pressure (Baseline, before treatment) [mm Hg] | left ventricular end diastolic pressure, effect in words | left ventricular systolic pressure, effect in words | further results
O=C(O)CCNC(=O)C(CS)Cc1ccccc1 (racemic) [SQ 28603, (±)-N-[2-(mercaptomethyl)-1-oxo-3-phenylpropyl]-β-alanine] | 381 ± 9 | 14 ± 2 | 109 ± 5 | 366 ± 9 | 17 ± 3 | 105 ± 4 | 378 ± 8 | 16 ± 3 | 105 ± 5 | 4 ± 1 | -8 ± 1 | -1 ± 2 | -12 ± 3 | -2 ± 1 | -12 ± 2 | 378 ± 12 | 18 ± 3 | 117 ± 5 | smaller decreases | smaller decreases | Heart Rate, Change From Baseline [4]: 3 ± 8 mm Hg; Heart Rate, Change From Baseline [5]: -13 ± 12 mm Hg; Heart Rate, Change From Baseline [6]: -1 ± 9 mm Hg; Heart Rate [7]: 380 ± 7 beats/min; Left Ventricular End Diastolic Pressure [7]: 14 ± 3 mm Hg; Left Ventricular Systolic Pressure [7]: 108 ± 5 mm Hg
CCCCC1=NC2(CCCC2)C(=O)N1Cc1ccc(-c2ccccc2-c2nnn[nH]2)cc1 [BMS 186295, 2-butyl-6,7,8,9-tetrahydro-3-[[2'-(1H-tetrazol-5-yl)[1,1'-biphenyl]-4-yl]-methyl]-1,3-diazaspiro[4.4]nonan-4-one] | 363 ± 20 | 16 ± 2 | 114 ± 2 | 367 ± 18 | 16 ± 2 | 111 ± 2 | 369 ± 28 | 18 ± 3 | 112 ± 5 | -1 ± 1 | 2 ± 2 | -1 ± 1 | -1 ± 2 | 1 ± 2 | 1 ± 5 | 338 ± 16 | 17 ± 2 | 112 ± 2 | no significant effects | no significant effects | Heart Rate [7]: 364 ± 14 beats/min; Left Ventricular End Diastolic Pressure [7]: 18 ± 2 mm Hg; Left Ventricular Systolic Pressure [7]: 111 ± 1 mm Hg
